Test results taken from patent publication US12559506B2, “Indazole based compounds and associated methods of use” (Arvinas Operations, Inc., priority 2021, dated 2026).
Where two headings read alike, the source gives them in different places.

Target: T1, LRRK2 (endogenous, HiBit tagged) (Homo sapiens, UniProt Q5S007)
T1 construct: endogenous in cells; host or cells: HEK293 cells with HiBit knock-in at the endogenous LRRK2 locus, stably expressing firefly luciferase
Assay: Endogenous LRRK2 degradation assay, endogenous gene C-terminally HiBit-tagged in HEK293 cells (Nano-Glo Dual Luciferase)
Assay type: cell-based
Source text: Exemplary Assay for Testing LRRK2 Degradation Driven by Exemplary Hetero-Bifunctional Compounds Designed to Target LRRK2
The assay measures the degradation of LRRK2 in cells where the C-terminus (3′) of the endogenous gene has been tagged with a HiBit sequence in HEK293 cells. The cells also express firefly luciferase, expressed from a Cytomegalovirus promoter and introduced into the HiBit tagged cells and stably expressed. The Nano-Glo® Dual Luciferase Reporter Assay System (Promega™, Madison, WI) was utilized.
Day 1—Preparation of Compound and Assay Plates. Two sets of plates were prepared: a triplicate set for the HiBit assay in white 384-well plates and a triplicate set of plate in black 384-well plates for the Alamar Blue cell viability assay. Briefly, the growth media (DMEM+Glutamax-10% fetal bovine serum-1% Penicillin-Streptomicin) from two T128 flasks was aspirated from the flasks. Cells were washed with Dulbecco's Phosphate Buffered Saline (dPBS) and aspirated. Trypsin (3 mL per flask) was added and the flasks were incubated for 2-3 minutes.
Ten mL of OptiMEM-10% fetal bovine-1% penicillin-streptomycin (hereinafter, “OptiMEM media”) was added to the flask and the cells and transferred to a 50 mL conical tube. A cell count (25 ul of cell into Effendorf vial+25 ul of Trypan Blue Stain) was performed and the cell density adjusted to 15,000 cell/45 μl/well (3.33×10^5/mL) in OptiMEM media.
Fourty-five microliters of the cell suspension (15,000 cells) was aliquoted to each well of the white 384-well plate. The plates incubated at room temperature for 10 minutes before being placed in the 37° C.+5% CO2 incubator overnight
Day 2—Compound Treatment. Exemplary compounds were prepared at a 1 mM starting concentration and 1:3 serial dilution for 11 points CRC prepared and stored in the freezer. The Master Compound Plate was thawed overnight at room temperature. DMSO (20 μL) was added into column 24 of the Master Compound Plate for negative control and 20 μL of 300 μM of Compound 4 in column 23 as positive control.
Intermediate Compound Plate with 4% DMSO in OptiMEM Media. DMSO was added to warm OptiMEM media to achieve a 4% DMSO solution (approximately 50 mL/plate). One-hundred microliters of the OptiMEM-4% DMSO was aliquoted to each well of 384-Well Deep Well Microplates.
The Master Compound Plate and the Intermediate Compound Plate were spun down.
One microliter of compound from the Master Compound Plate was transferred into the Intermediate plate (a 1:100 dilution). The diluted mixture was mixed and 5 μL transferred into the assay plate (a 1:10 dilution) for the final starting concentration of 1 μM. The Treated Assay plates were incubated for 24 hours at 37° C.+5% CO2. The Master Compound Plate was sealed and store at room temperature for a second run that was performed within a week.
Day 3—HiBit Assay. Five microliters of Alamar Blue was added to each well of the black 384-well plates. The plates were incubated for 2 hours in the incubator (37° C.+5% CO2) and at room temperature for one hour. Fluorescence of each plate was read on a plated reader for the Alamar Blue viability assay.
One set of white assay plates was warmed to room temperature (45 minute).
The One Glo luciferase mixture was prepared. The media from white 384-well assay plates was aspirated. Twenty-five μL of the One Glo luciferase mixture was added to each well of the assay plates. The plates were incubated on the bench (room temperature) for 45 minutes, including 10 minutes of shaking at 700 rpm. The luminescence of each plate was read on a plate reader.
1:100 DLR substrate and 1:100 LgBiT Protein dilution were added to the Promega Stop and Glo buffer and mixed just before addition to assay plates. Twenty-five microliters of Stop and Glo mixture was added to each well. Assay plates incubated for at least 45 minutes, including 10 minutes of shaking at 700 rpm. The luminescence of each plate was read on a plate reader.
Analysis of LRRK2 HiBit Screening assays. […]

[1] = endogenous HiBit-tagged LRRK2 in HEK293 cells, 24 hours treatment, read-out: Endogenous WT DC50
[2] = endogenous HiBit-tagged LRRK2 in HEK293 cells, 24 hours treatment, read-out: Endogenous WT Dmax
[3] = endogenous HiBit-tagged LRRK2 in HEK293 cells, 24 hours treatment, read-out: **Endogenous WT Dmax (%)
[4] = endogenous HiBit-tagged LRRK2 in HEK293 cells, 24 hours treatment, read-out: *Endogenous WT DC50

T1 sequence (Q5S007 whole entry): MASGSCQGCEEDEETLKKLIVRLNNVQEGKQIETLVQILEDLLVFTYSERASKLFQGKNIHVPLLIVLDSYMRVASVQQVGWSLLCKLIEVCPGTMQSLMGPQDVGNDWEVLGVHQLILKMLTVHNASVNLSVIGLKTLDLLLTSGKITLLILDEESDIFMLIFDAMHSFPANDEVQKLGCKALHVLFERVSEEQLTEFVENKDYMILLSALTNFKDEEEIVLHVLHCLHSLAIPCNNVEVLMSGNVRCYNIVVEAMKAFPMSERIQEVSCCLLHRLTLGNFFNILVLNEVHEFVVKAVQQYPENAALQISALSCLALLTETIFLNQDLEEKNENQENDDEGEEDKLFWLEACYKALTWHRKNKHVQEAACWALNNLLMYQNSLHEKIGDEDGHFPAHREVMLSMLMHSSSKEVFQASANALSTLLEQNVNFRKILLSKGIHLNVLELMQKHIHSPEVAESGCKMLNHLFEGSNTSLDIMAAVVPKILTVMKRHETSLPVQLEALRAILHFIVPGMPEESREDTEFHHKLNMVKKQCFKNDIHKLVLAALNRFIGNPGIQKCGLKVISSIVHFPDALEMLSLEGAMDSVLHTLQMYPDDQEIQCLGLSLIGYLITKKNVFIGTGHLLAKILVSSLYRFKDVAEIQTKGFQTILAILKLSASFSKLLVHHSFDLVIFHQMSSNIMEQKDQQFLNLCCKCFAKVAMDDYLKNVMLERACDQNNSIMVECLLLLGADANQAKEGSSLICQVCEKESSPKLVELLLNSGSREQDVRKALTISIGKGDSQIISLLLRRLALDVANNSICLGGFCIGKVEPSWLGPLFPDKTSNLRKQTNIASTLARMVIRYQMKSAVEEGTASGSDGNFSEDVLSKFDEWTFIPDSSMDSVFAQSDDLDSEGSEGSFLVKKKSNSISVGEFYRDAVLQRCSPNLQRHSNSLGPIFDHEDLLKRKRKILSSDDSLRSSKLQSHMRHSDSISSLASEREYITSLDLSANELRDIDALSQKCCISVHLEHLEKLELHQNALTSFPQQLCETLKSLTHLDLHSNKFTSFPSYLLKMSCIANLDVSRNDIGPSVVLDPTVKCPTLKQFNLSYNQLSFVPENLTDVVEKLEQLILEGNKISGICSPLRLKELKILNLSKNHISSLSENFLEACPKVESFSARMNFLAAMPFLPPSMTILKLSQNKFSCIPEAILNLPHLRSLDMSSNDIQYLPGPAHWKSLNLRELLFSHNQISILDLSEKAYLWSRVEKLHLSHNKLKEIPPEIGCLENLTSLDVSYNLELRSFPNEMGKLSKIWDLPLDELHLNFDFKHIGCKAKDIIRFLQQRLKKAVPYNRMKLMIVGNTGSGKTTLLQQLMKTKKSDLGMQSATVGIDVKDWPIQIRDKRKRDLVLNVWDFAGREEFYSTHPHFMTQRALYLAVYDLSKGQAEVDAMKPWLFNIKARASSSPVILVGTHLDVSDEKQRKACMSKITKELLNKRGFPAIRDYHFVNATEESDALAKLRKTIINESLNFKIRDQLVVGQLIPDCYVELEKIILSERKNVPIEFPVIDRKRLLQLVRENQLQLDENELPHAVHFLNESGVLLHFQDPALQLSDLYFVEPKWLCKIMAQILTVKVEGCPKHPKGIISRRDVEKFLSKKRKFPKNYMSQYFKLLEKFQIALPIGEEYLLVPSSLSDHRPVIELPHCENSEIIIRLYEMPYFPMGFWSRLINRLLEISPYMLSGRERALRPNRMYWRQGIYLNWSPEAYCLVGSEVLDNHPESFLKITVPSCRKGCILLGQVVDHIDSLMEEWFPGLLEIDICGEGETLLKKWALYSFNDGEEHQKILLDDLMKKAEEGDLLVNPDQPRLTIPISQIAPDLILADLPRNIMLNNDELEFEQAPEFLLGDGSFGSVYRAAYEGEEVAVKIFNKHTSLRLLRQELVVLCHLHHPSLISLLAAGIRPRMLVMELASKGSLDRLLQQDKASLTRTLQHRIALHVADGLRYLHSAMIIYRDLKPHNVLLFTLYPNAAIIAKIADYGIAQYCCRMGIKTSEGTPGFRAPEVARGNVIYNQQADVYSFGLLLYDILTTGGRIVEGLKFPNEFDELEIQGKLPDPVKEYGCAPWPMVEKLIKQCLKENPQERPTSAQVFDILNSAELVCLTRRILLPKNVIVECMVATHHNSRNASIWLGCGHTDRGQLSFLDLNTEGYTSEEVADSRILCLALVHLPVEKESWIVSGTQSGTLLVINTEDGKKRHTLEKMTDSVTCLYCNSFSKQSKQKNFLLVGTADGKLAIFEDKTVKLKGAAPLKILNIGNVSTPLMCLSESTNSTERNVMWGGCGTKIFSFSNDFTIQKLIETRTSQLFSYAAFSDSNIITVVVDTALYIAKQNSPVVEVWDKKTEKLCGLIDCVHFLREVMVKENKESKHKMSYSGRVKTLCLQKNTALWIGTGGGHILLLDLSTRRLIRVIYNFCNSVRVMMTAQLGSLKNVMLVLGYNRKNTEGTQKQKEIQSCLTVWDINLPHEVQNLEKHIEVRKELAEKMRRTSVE

Cc1nc(-c2n[nH]c3ccc(OC4(C)CC4)cc23)cc(N2CCN(C[C@H]3CC[C@H](OC4CCN(c5ccc6c(c5F)CN(C5CCC(=O)NC5=O)C6=O)CC4)CC3)CC2)n1 (stereo partly drawn) [Compound 365, 3-[4-fluoro-1-oxo-5-(4-{[(1r,4r)-4-[(4-{2-methyl-6-[5-(1-methylcyclopropoxy)-1H-indazol-3-yl]pyrimidin-4-yl}piperazin-1-yl)methyl]cyclohexyl]oxy}piperidin-1-yl)-2,3-dihydro-1H-isoindol-2-yl]piperidine-2,6-dione]
DC50 [1]: < 10 nM
Dmax [2]: 50 to 70%

COc1c(N2CCC(O[C@H]3CC[C@H](CN4CCN(c5cc(-c6[nH]nc7ccc(OC8(C)CC8)cc67)ncn5)CC4)CC3)CC2)ccc2c1CN(C1CCC(=O)NC1=O)C2=O (stereo partly drawn) [Compound 238, 3-[4-methoxy-1-oxo-5-(4-{[(1r,4r)-4-[(4-{6-[5-(1-methylcyclopropoxy)-2H-indazol-3-yl]pyrimidin-4-yl}piperazin-1-yl)methyl]cyclohexyl]oxy}piperidin-1-yl)-2,3-dihydro-1H-isoindol-2-yl]piperidine-2,6-dione]
DC50 [1]: < 10 nM
Dmax [2]: 50 to 70%

CC1(Oc2ccc3[nH]nc(-c4cc(N5CCC(CN6CCC7(CN(c8ccc9c(c8F)CN(C8CCC(=O)NC8=O)C9=O)C7)C(F)(F)C6)CC5)ncn4)c3c2)CC1 (stereo not drawn) [Compound 350, 3-(5-{5,5-difluoro-7-[(1-{6-[5-(1-methylcyclopropoxy)-1H-indazol-3-yl]pyrimidin-4-yl}piperidin-4-yl)methyl]-2,7-diazaspiro[3.5]nonan-2-yl}-4-fluoro-1-oxo-2,3-dihydro-1H-isoindol-2-yl)piperidine-2,6-dione]
Dmax [3]: 50 to 70%
DC50 [4]: < 10 nM

C[C@H]1CN(c2cc(-c3n[nH]c4cc(F)c(OC5(C)CC5)cc34)ncn2)CCN1CC1(F)CCN(CC2CCN(c3ccc4c(c3F)CN(C3CCC(=O)NC3=O)C4=O)CC2)CC1 (stereo partly drawn) [Compound 192, 3-[4-fluoro-5-[4-[[4-fluoro-4-[[(2S)-4-[6-[6-fluoro-5-(1-methylcyclopropoxy)-1H-indazol-3-yl]pyrimidin-4-yl]-2-methyl-piperazin-1-yl]methyl]-1-piperidyl]methyl]-1-piperidyl]-1-oxo-isoindolin-2-yl]piperidine-2,6-dione]
Dmax (endogenous HiBit-tagged LRRK2, HEK293 cells, 24 hours, read-out: **Endogenous WT Dmax (%)): ≥ 70%
DC50 (endogenous HiBit-tagged LRRK2, HEK293 cells, 24 hours, read-out: *Endogenous WT DC50): < 10 nM

CC1(Oc2ccc3[nH]nc(-c4cc(N5CCC(CC6(F)CCN(CC7CCN(c8c(F)cc9c(c8F)CN(C8CCC(=O)NC8=O)C9=O)CC7)CC6)CC5)ncn4)c3c2)CC1 (stereo not drawn) [Compound 223, 3-{4,6-difluoro-5-[4-({4-fluoro-4-[(1-{6-[5-(1-methylcyclopropoxy)-1H-indazol-3-yl]pyrimidin-4-yl}piperidin-4-yl)methyl]piperidin-1-yl}methyl)piperidin-1-yl]-1-oxo-2,3-dihydro-1H-isoindol-2-yl}piperidine-2,6-dione]
DC50 [1]: 10 to 50 nM
Dmax [2]: 50 to 70%

COc1c(N2CCC(CN3CCN(CC4CCN(c5cc(-c6n[nH]c7cnc(OC8(C)CC8)cc67)ncn5)CC4)CC3(C)C)CC2)ccc2c1CN(C1CCC(=O)NC1=O)C2=O (stereo not drawn) [Compound 277, 3-{5-[4-({2,2-dimethyl-4-[(1-{6-[5-(1-methylcyclopropoxy)-1H-pyrazolo[3,4-c]pyridin-3-yl]pyrimidin-4-yl}piperidin-4-yl)methyl]piperazin-1-yl}methyl)piperidin-1-yl]-4-methoxy-1-oxo-2,3-dihydro-1H-isoindol-2-yl}piperidine-2,6-dione]
Dmax [3]: 50 to 70%
DC50 [4]: < 10 nM

COc1c(N2CCC(CN3CCN(C(C)(C)C4CCN(c5cc(-c6n[nH]c7ccc(OC8(C)CC8)cc67)ncn5)CC4)CC3)CC2)ccc2c1CN(C1CCC(=O)NC1=O)C2=O (stereo not drawn) [Compound 331, 3-{4-methoxy-5-[4-({4-[2-(1-{6-[5-(1-methylcyclopropoxy)-1H-indazol-3-yl]pyrimidin-4-yl}piperidin-4-yl)propan-2-yl]piperazin-1-yl}methyl)piperidin-1-yl]-1-oxo-2,3-dihydro-1H-isoindol-2-yl}piperidine-2,6-dione]
Dmax [3]: 50 to 70%
DC50 [4]: < 10 nM

CC1(Oc2ccc3n[nH]c(-c4cc(N5CCC(O[C@H]6CC[C@H](OC7CCN(c8cc9c(cc8F)C(=O)N(C8CCC(=O)NC8=O)C9)CC7)CC6)CC5)ncn4)c3c2)CC1 (stereo partly drawn) [Compound 244, 3-[6-fluoro-1-oxo-5-(4-{[(1r,4r)-4-[(1-{6-[5-(1-methylcyclopropoxy)-2H-indazol-3-yl]pyrimidin-4-yl}piperidin-4-yl)oxy]cyclohexyl]oxy}piperidin-1-yl)-2,3-dihydro-1H-isoindol-2-yl]piperidine-2,6-dione]
DC50 [1]: < 10 nM
Dmax [2]: 50 to 70%

C[C@H]1CN(c2cc(-c3[nH]nc4ccc(OC5(C)CC5)cc34)ncn2)CCN1CC(=O)N1CCC(CN2CCN(c3ccc4c(c3)C(=O)N(C3CCC(=O)NC3=O)C4=O)CC2)CC1 (stereo partly drawn) [Compound 59, 2-(2,6-dioxo-3-piperidyl)-5-[4-[[1-[2-[(2S)-2-methyl-4-[6-[5-(1-methylcyclopropoxy)-2H-indazol-3-yl]pyrimidin-4-yl]piperazin-1-yl]acetyl]-4-piperidyl]methyl]piperazin-1-yl]isoindoline-1,3-dione]
Dmax (endogenous HiBit-tagged LRRK2 in HEK293 cells, 24 hours, read-out: **Endogenous WT Dmax (%)): ≥ 70%
DC50 (endogenous HiBit-tagged LRRK2 in HEK293 cells, 24 hours, read-out: *Endogenous WT DC50): < 10 nM

CC1(Oc2ccc3[nH]nc(-c4cc(N5CCC(CN6CCN(CC7CCN(c8c(F)cc9c(c8F)CN(C8CCC(=O)NC8=O)C9=O)CC7)CC6)CC5)ncn4)c3c2)CC1 (stereo not drawn) [Compound 219, 3-[4,6-difluoro-5-[4-[[4-[[1-[6-[5-(1-methylcyclopropoxy)-1H-indazol-3-yl]pyrimidin-4-yl]-4-piperidyl]methyl]piperazin-1-yl]methyl]-1-piperidyl]-1-oxo-isoindolin-2-yl]piperidine-2,6-dione]
DC50 [1]: < 10 nM
Dmax [2]: 50 to 70%

COc1c(N2CCC(CN3CCC(OC4CN(c5cc(-c6[nH]nc7ccc(OC8(C)CC8)cc67)ncn5)C4)CC3)CC2)ccc2c1CN(C1CCC(=O)NC1=O)C2=O (stereo not drawn) [Compound 298, 3-{4-methoxy-5-[4-({4-[(1-{6-[5-(1-methylcyclopropoxy)-2H-indazol-3-yl]pyrimidin-4-yl}azetidin-3-yl)oxy]piperidin-1-yl}methyl)piperidin-1-yl]-1-oxo-2,3-dihydro-1H-isoindol-2-yl}piperidine-2,6-dione]
Dmax [3]: 50 to 70%
DC50 [4]: < 10 nM

CC1(Oc2ccc3n[nH]c(-c4cc(N5CCN(C[C@H]6CC[C@H](OC7CCN(c8ccc9c(c8F)CN(C8CCC(=O)NC8=O)C9=O)CC7)CC6)CC5)ncn4)c3c2)CC1 (stereo partly drawn) [Compound 234, 3-[4-fluoro-5-[4-[4-[[4-[6-[5-(1-methylcyclopropoxy)-2H-indazol-3-yl]pyrimidin-4-yl]piperazin-1-yl]methyl]cyclohexoxy]-1-piperidyl]-1-oxo-isoindolin-2-yl]piperidine-2,6-dione]
DC50 [1]: < 10 nM
Dmax [2]: 50 to 70%
